Laboratory results taken from ChEMBL document CHEMBL5252638, “Novel triphenylphosphonium amphiphilic conjugates of glycerolipid type: synthesis, cytotoxic and antibacterial activity, and targeted cancer cell delivery” (RSC Med Chem, 2023).

What was measured:
[1] = system: M-HeLa; assay: Cytotoxicity against human HelaM cells assessed as number of viable cells measured after 48 hrs by MTT based colorimetric assay; assay type: functional, cell-based
[2] = system: MCF7; assay: Cytotoxicity against human MCF7 cells assessed as number of viable cells measured after 48 hrs by MTT based colorimetric assay; assay type: functional, cell-based; settings: MCF7, 48 h
[3] = system: HuTu80; assay: Cytotoxicity against human HuTu80 cells assessed as number of viable cells measured after 48 hrs by MTT based colorimetric assay; assay type: functional, cell-based; settings: HuTu80, 48 h
[4] = system: PANC-1; assay: Cytotoxicity against human PANC-1 cells assessed as number of viable cells measured after 48 hrs by MTT based colorimetric assay; assay type: functional, cell-based; settings: PANC-1, 48 h
[5] = system: A549; assay: Cytotoxicity against human A549 cells assessed as number of viable cells measured after 48 hrs by MTT based colorimetric assay; assay type: functional, cell-based; settings: A549, 48 h
[6] = system: PC-3; assay: Cytotoxicity against human PC-3 cells assessed as number of viable cells measured after 48 hrs by MTT based colorimetric assay; assay type: functional, cell-based; settings: PC-3, 48 h
[7] = system: T98G; assay: Cytotoxicity against human T98G cells assessed as number of viable cells measured after 48 hrs by MTT based colorimetric assay; assay type: functional, cell-based
[8] = system: HepG2; assay: Cytotoxicity against human HepG2 cells assessed as number of viable cells measured after 48 hrs by MTT based colorimetric assay; assay type: functional, cell-based; settings: HepG2, 48 h
[9] = system: SK-OV-3; assay: Cytotoxicity against human SK-OV-3 cells assessed as number of viable cells measured after 48 hrs by MTT based colorimetric assay; assay type: functional, cell-based; settings: SK-OV-3, 48 h
[10] = system: DU-145; assay: Cytotoxicity against human DU-145 cells assessed as number of viable cells measured after 48 hrs by MTT based colorimetric assay; assay type: functional, cell-based; settings: DU-145, 48 h
[11] = Cytotoxicity against human WI-38 cells assessed as number of viable cells measured after 48 hrs by MTT based colorimetric assay; assay type: toxicity, cell-based
[12] = Cytotoxicity against human Chang liver cells assessed as number of viable cells measured after 48 hrs by MTT based colorimetric assay; assay type: toxicity, cell-based
[13] = species on record: Homo sapiens; assay: Selectivity index, ratio of IC50 for human WI-38 cells to IC50 for human HuTu80 cells
[14] = system: HuTu80; assay: Induction of apoptosis in human HuTu80 cells assessed as viable cells at 5 uM incubated for 48 hrs by annexin V FITC/propidium iodide staining based flow cytometry analysis (reference value: 93.71%); assay type: functional; settings: read-out: Activity
[15] = system: HuTu80; assay: Induction of apoptosis in human HuTu80 cells assessed as viable cells at 10 uM incubated for 48 hrs by annexin V FITC/propidium iodide staining based flow cytometry analysis (reference value: 93.71%); assay type: functional; settings: read-out: Activity
[16] = system: HuTu80; assay: Induction of apoptosis in human HuTu80 cells assessed as early apoptotic cells at 5 uM incubated for 48 hrs by annexin V FITC/propidium iodide staining based flow cytometry analysis (reference value: 1.74%); assay type: functional
[17] = system: HuTu80; assay: Induction of apoptosis in human HuTu80 cells assessed as early apoptotic cells at 10 uM incubated for 48 hrs by annexin V FITC/propidium iodide staining based flow cytometry analysis (reference value: 1.74%); assay type: functional
[18] = system: HuTu80; assay: Induction of apoptosis in human HuTu80 cells assessed as late apoptotic cells at 5 uM incubated for 48 hrs by annexin V FITC/propidium iodide staining based flow cytometry analysis (reference value: 0.00%); assay type: functional
[19] = system: HuTu80; assay: Induction of apoptosis in human HuTu80 cells assessed as late apoptotic cells at 10 uM incubated for 48 hrs by annexin V FITC/propidium iodide staining based flow cytometry analysis (reference value: 0.00%); assay type: functional
[20] = system: HuTu80; assay: Induction of apoptosis in human HuTu80 cells assessed as necrotic cells at 5 uM incubated for 48 hrs by annexin V FITC/propidium iodide staining based flow cytometry analysis (reference value: 4.56%); assay type: functional
[21] = system: HuTu80; assay: Induction of apoptosis in human HuTu80 cells assessed as necrotic cells at 10 uM incubated for 48 hrs by annexin V FITC/propidium iodide staining based flow cytometry analysis (reference value: 4.56%); assay type: functional
[22] = system: HuTu80; assay: Induction of cell cycle arrest in human HuTu80 cells assessed as accumulation of cell at G1/G0 phase at 5 uM measured after 48 hrs by propidium iodide staining based analysis (reference value: 72%); assay type: functional
[23] = system: HuTu80; assay: Induction of cell cycle arrest in human HuTu80 cells assessed as accumulation of cell at G1/G0 phase at 10 uM measured after 48 hrs by propidium iodide staining based analysis (reference value: 72%); assay type: functional
[24] = system: HuTu80; assay: Induction of cell cycle arrest in human HuTu80 cells assessed as accumulation of cell at G2/M phase at 5 uM measured after 48 hrs by propidium iodide staining based analysis (reference value: 18.7%); assay type: functional
[25] = system: HuTu80; assay: Induction of cell cycle arrest in human HuTu80 cells assessed as accumulation of cell at G2/M phase at 10 uM measured after 48 hrs by propidium iodide staining based analysis (reference value: 18.7%); assay type: functional
[26] = system: HuTu80; assay: Induction of cell cycle arrest in human HuTu80 cells assessed as accumulation of cell at S phase at 5 uM measured after 48 hrs by propidium iodide staining based analysis (reference value: 8.1%); assay type: functional
[27] = system: HuTu80; assay: Induction of cell cycle arrest in human HuTu80 cells assessed as accumulation of cell at S phase at 10 uM measured after 48 hrs by propidium iodide staining based analysis (reference value: 8.1%); assay type: functional
[28] = system: HuTu80; assay: Induction of ROS production in human HuTu80 cells assessed as increase in fluorescence intensity at 5 uM measured after 48 hrs by flow cytometry based analysis (reference value: 380); assay type: functional
[29] = system: HuTu80; assay: Induction of ROS production in human HuTu80 cells assessed as increase in fluorescence intensity at 10 uM measured after 48 hrs by flow cytometry based analysis (reference value: 380); assay type: functional
[30] = system: HuTu80; assay: Induction of mitochondrial membrane potential loss in human HuTu80 cells assessed as J-monomer green fluorescence intensity at 5 uM incubated for 24 hrs by JC10 staining based flow cytometry method (reference value: 5.7%); assay type: functional
[31] = system: HuTu80; assay: Induction of mitochondrial membrane potential loss in human HuTu80 cells assessed as J-monomer green fluorescence intensity at 10 uM incubated for 24 hrs by JC10 staining based flow cytometry method (reference value: 5.7%); assay type: functional
[32] = system: HuTu80; assay: Induction of mitochondrial membrane potential loss in human HuTu80 cells assessed as J-aggregates red fluorescence intensity at 5 uM incubated for 24 hrs by JC10 staining based flow cytometry method (reference value: 94.4%); assay type: functional
[33] = system: HuTu80; assay: Induction of mitochondrial membrane potential loss in human HuTu80 cells assessed as J-aggregates red fluorescence intensity at 10 uM incubated for 24 hrs by JC10 staining based flow cytometry method (reference value: 94.4%); assay type: functional
[34] = system: Staphylococcus aureus; assay: Antimicrobial activity against Staphylococcus aureus ATCC 6538 P FDA 209P by serial microdilution method; assay type: functional
[35] = system: Bacillus cereus; assay: Antimicrobial activity against Bacillus cereus ATCC 10702 NCTC 8035 by serial microdilution method; assay type: functional
[36] = system: Enterococcus faecalis; assay: Antimicrobial activity against Enterococcus faecalis ATCC 29212 by serial microdilution method; assay type: functional
[37] = system: Escherichia coli; assay: Antimicrobial activity against Escherichia coli ATCC 25922 by serial microdilution method; assay type: functional
[38] = system: Staphylococcus aureus; assay: Bactericidal against Staphylococcus aureus ATCC 6538 P FDA 209P by serial microdilution method; assay type: functional
[39] = system: Bacillus cereus; assay: Bactericidal activity against Bacillus cereus ATCC 10702 NCTC 8035 by serial microdilution method; assay type: functional
[40] = system: Enterococcus faecalis; assay: Bactericidal activity against Enterococcus faecalis ATCC 29212 by serial microdilution method; assay type: functional
[41] = system: Escherichia coli; assay: Bactericidal activity against Escherichia coli ATCC 25922 by serial microdilution method; assay type: functional
[42] = species on record: Homo sapiens; assay: Selectivity index, ratio of IC50 for human WI-38 cells to IC50 for human SK-OV-3 cells
[43] = species on record: Homo sapiens; assay: Selectivity index, ratio of IC50 for human WI-38 cells to IC50 for human HelaM cells
[44] = Selectivity index, ratio of IC50 for human WI-38 cells to IC50 for human MCF7 cells; assay type: toxicity; settings: WI-38 cells and MCF7 cells, read-out: Ratio IC50
[45] = species on record: Homo sapiens; assay: Selectivity index, ratio of IC50 for human WI-38 cells to IC50 for human PANC-1 cells
[46] = Selectivity index, ratio of IC50 for human WI-38 cells to IC50 for human PC-3 cells; assay type: toxicity; settings: WI-38 cells and PC-3 cells, read-out: Ratio IC50
[47] = species on record: Homo sapiens; assay: Selectivity index, ratio of IC50 for human Chang liver cells to IC50 for human DU-145 cells

## CCCCCCCC/C=C\CCCCCCCC(=O)OCC(O)COC(=O)CCCC[P+](c1ccccc1)(c1ccccc1)c1ccccc1.[Br-] (centres undefined)
[1]
  IC50: 60.2 µM
[2]
  IC50: 52.1 µM
[3]
  IC50: 10 µM
[4]
  IC50: 62.5 µM
[5]
  IC50: 71.3 µM
[6]
  IC50: 51 µM
[7]
  IC50: 62.5 µM
[8]
  IC50: 100 µM
[9]
  IC50: 52 µM
[10]
  IC50: 41 µM
[11]
  IC50 at 48 h: 53.1 µM
[12]
  IC50 at 48 h: 34 µM
[13]
  Ratio IC50: 5.1
[14]
  viability at 5 µM: 63.7%
[15]
  viability at 10 µM: 37.6%
[16]
  Activity: 3.35%
[17]
  Activity: 4.78%
[18]
  Activity: 15.18%
[19]
  Activity: 33.13%
[20]
  Activity: 17.73%
[21]
  Activity: 24.48%
[22]
  Activity: 84%
[23]
  Activity: 87%
[24]
  Activity: 3%
[25]
  Activity: 1.1%
[26]
  Activity: 2.1%
[27]
  Activity: 1.2%
[28]
  Flu intensity: 700
[29]
  Flu intensity: 1500
[30]
  Activity: 49%
[31]
  Activity: 67.5%
[32]
  Activity: 51.1%
[33]
  Activity: 30.1%
[34]
  MIC: 31.3 µM
[35]
  MIC: 7.8 µM
[36]
  MIC: 7.8 µM
[37]
  MIC: 125 µM
[38]
  MBC: 500 µM
[39]
  MBC: 500 µM
[40]
  MBC: 125 µM
[41]
  MBC: 125 µM

## CCCCC/C=C\C/C=C\CCCCCCCC(=O)OC(COC(=O)CCCCCCC/C=C\CCCCCCCC)COC(=O)CCCC[P+](c1ccccc1)(c1ccccc1)c1ccccc1 (centres undefined)
[42]
  Ratio IC50: 1.9
[1]
  IC50: 32.1 µM
[2]
  IC50: 25.4 µM
[3]
  IC50: 3.7 µM
[4]
  IC50: 33.5 µM
[5]
  IC50: 54.4 µM
[6]
  IC50: 27.8 µM
[7]
  IC50: 73.8 µM
[8]
  IC50: 58.2 µM
[9]
  IC50: 21 µM
[10]
  IC50: 19.2 µM
[11]
  IC50 at 48 h: 40 µM
[12]
  IC50 at 48 h: 36 µM
[43]
  Ratio IC50: 1.2
[44]
  selectivity ratio: 1.6
[13]
  Ratio IC50: 10.8
[45]
  Ratio IC50: 1.2
[46]
  selectivity ratio: 1.4
[47]
  Ratio IC50: 1.9
[34]
  MIC: 7.5 µM
[35]
  MIC: 7.5 µM
[37]
  MIC: 30 µM
[38]
  MBC: 7.5 µM
[40]
  MBC: 30 µM
[41]
  MBC: 30 µM

## O=c1[nH]cc(F)c(=O)[nH]1 [FLUOROURACIL]
[1]
  IC50: 62 µM
[3]
  IC50: 65.2 µM
[4]
  IC50: 100 µM
[5]
  IC50: 32.4 µM
[6]
  IC50: 10.3 µM
[9]
  IC50: 47.2 µM
[11]
  IC50 at 48 h: 62 µM
[12]
  IC50 at 48 h: 19 µM
